Measurements: patent US7056655B2, “Methods for monitoring and guiding therapeutic suppression of parathyroid hormone in renal patients having secondary hyperparathyroidism” (Scantibodies Laboratory, Inc., priority 2001, dated 2006)

Columns and labels:
Type in all cases: in vivo
[1] = test system: PTH agonist; assay: Clinical trial in ESRD patients: PTH agonist assay (Scantibodies) on blood samples; conditions: for PTH agonist decrease: median values; for PTH agonist: median of ninety patients, 5.5 μg intravenously every three days
Procedure: (§1) A clinical trial was held for ninety ESRD patients. Each patient had been receiving vitamin D suppressant therapy in accordance with the manufacturer's guidelines. Each patient was removed from the therapy for a washout period of four weeks, and this was confirmed by a rise in PTH measurements after removal of the therapeutic. PTH maxacalcitol (made by Chugai Pharmaceutical Corporation of Tokyo, Japan) suppressant therapy was started after the washout at a constant administration of 5.5 μg intravenously every three days. Blood samples were obtained from each patient after the washout (week 0), six weeks after therapy restart (week 6), and twelve weeks after therapy restart (week 12). The samples were assayed for PTH agonist levels and PTH antagonist levels using the PTH agonist assay and total PTH assay made by Scantibodies Laboratory, Inc. The samples were assayed for bone specific alkaline phosphatase using a commercially available immunoassay from Hybritech, Inc. of San Diego, Calif.
(§2) The results of the assays for the ninety patients are shown in FIG. 2 and the following table as median values: […]

[2] = test system: PTH antagonist; assay: Clinical trial in ESRD patients: PTH antagonist level (total PTH minus PTH agonist); conditions: for PTH antagonist decrease: 6 weeks versus 0 weeks; for PTH antagonist decrease / PTH antagonist increase: median values; for PTH antagonist increase: 12 weeks versus 6 weeks; for PTH antagonist: median of ninety patients, 5.5 μg intravenously every three days
Excerpt: PTH antagonist levels should be measured using an assay that either directly detects PTH antagonist (but not PTH agonist) or indirectly through a total PTH measurement that measures the sum of the PTH agonist and PTH antagonist. An indirect measurement subtracts the PTH agonist value from the total PTH value, deriving the PTH antagonist value. Thus, one should use a total PTH assay that is designed to have essentially 100% cross-reactivity with PTH antagonist and PTH agonist. For example, Scantibodies Laboratory Total Intact PTH Assay or Scantibodies Laboratory Intact PTH Assay are appropriate assays.
as §1, §2

[3] = test system: bone specific alkaline phosphatase; assay: Clinical trial in ESRD patients: bone specific alkaline phosphatase immunoassay (Hybritech); conditions: for Alkaline Phosphatase decrease: median values; for Alkaline Phosphatase: median of ninety patients, 5.5 μg intravenously every three days
Procedure: as §1, §2

[4] = test system: Total PTH; assay: Clinical trial in ESRD patients: total PTH assay (Scantibodies) on blood samples; conditions: for Total PTH decrease: median values; for Total PTH: median of ninety patients, 5.5 μg intravenously every three days
Procedure: as §1, §2

[5] = 6 weeks versus 0 weeks, listed as PTH suppressant
[6] = 12 weeks versus 6 weeks, listed as PTH suppressant

In the case of `C=C1/C(=C\C=C2/CCC[C@]3(C)[C@@H]([C@H](C)OCCC(C)(C)O)CC[C@@H]23)C[C@@H](O)C[C@@H]1O` [maxacalcitol], the PTH agonist decrease ([1]; 6 weeks versus 0 weeks) is reported as “(41% decrease)”, the PTH agonist decrease [1, 5] is reported as 41% and the PTH agonist decrease ([1]; 12 weeks versus 6 weeks) is reported as “(8% decrease)”. It also gave a PTH agonist decrease [1, 6] of 8%, a PTH agonist ([1]; 6 weeks (0 weeks: 609)) of 361 pg/mL and a PTH agonist ([1]; 12 weeks (0 weeks: 609)) of 331 pg/mL. The PTH antagonist decrease [2] was “(42% decrease)”, the PTH antagonist decrease ([2]; listed as PTH suppressant) was 42% and the PTH antagonist increase [2] was “(21% increase)”. For the same molecule, the PTH antagonist increase ([2]; listed as PTH suppressant) was 21%, the PTH antagonist ([2]; 6 weeks (0 weeks: 276)) was 160 pg/mL and the PTH antagonist ([2]; 12 weeks (0 weeks: 276)) was 194 pg/mL. For the same molecule, the “Alkaline Phosphatase decrease” value ([3]; 6 weeks versus 0 weeks) was “(13% decrease)”, the “Alkaline Phosphatase decrease” value ([3]; 12 weeks versus 6 weeks) was “(16% decrease)” and the “Alkaline Phosphatase” value ([3]; 6 weeks (0 weeks: 396)) was 344 U/ml. For the same molecule, the “Alkaline Phosphatase” value ([3]; 12 weeks (0 weeks: 396)) was 290 U/ml, the “Total PTH decrease” value ([4]; 6 weeks versus 0 weeks) was “(41% decrease)” and the “Total PTH decrease” value [4, 5] was 41%. For the same molecule, the “Total PTH decrease” value ([4]; 12 weeks versus 6 weeks) was “(1% decrease)”, the “Total PTH decrease” value [4, 6] was 0.8% and the “Total PTH” value ([4]; 6 weeks (0 weeks: 886)) was 531 pg/mL. For the same molecule, the “Total PTH” value ([4]; 12 weeks (0 weeks: 886)) was 525 pg/mL.
